For 8 compounds, TGI results are on record in PubChem BioAssay (NCI).

Among the test systems are HCT-116 colon; 786-0 renal; MDA-MB-435; UACC-62 melanoma; MDA-N; SK-OV-3 ovarian; EKVX NSCLC; SNB-75 CNS; OVCAR-8 ovarian; UO-31 renal; K-562 leukemia; SW-620 colon; HOP-62 NSCLC; SK-MEL-2 melanoma; HT29 colon; U251 CNS; HOP-92 NSCLC.
Common to all, as to assay: NCI anticancer screen, dose series, 48 h

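Method: 48-hour compound exposure of cells in 96-well plates, five concentrations, linear interpolation of endpoints. TGI is the concentration that stops growth completely.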

As for `Cc1ccsc1/C=N/Nc1nncc2ccccc12`, the TGI in the assay with HCT-116 colon, in the assay on 786-0 renal, in the assay with MDA-MB-435, with UACC-62 melanoma, in the assay with MDA-N and in the assay on SK-OV-3 ovarian was greater than 100 µM each time. The TGI with EKVX NSCLC, with SNB-75 CNS, in the assay with OVCAR-8 ovarian, in the assay with UO-31 renal, in the assay with K-562 leukemia and in the assay with SW-620 colon was greater than 100 µM in each case. Further, the TGI in the assay on HOP-62 NSCLC was greater than 100 µM; in the assay with SK-MEL-2 melanoma, 92 µM; in the assay on HT29 colon, greater than 100 µM; in the assay on U251 CNS it was greater than 100 µM; in the assay on HOP-92 NSCLC, greater than 100 µM.

Consider `O=C1NC(N2CCCC(CO)C2)=N/C1=C\c1ccc(Cl)cc1` (stereo unspecified), for which the TGI with HCT-116 colon, in the assay with 786-0 renal, in the assay on MDA-MB-435, in the assay on UACC-62 melanoma, in the assay with MDA-N and in the assay with SK-OV-3 ovarian was greater than 100 µM each time. Moreover, the TGI in the assay with EKVX NSCLC, with SNB-75 CNS, in the assay with OVCAR-8 ovarian, in the assay with UO-31 renal, with K-562 leukemia and in the assay with SW-620 colon was greater than 100 µM each time. In addition, the TGI in the assay on HOP-62 NSCLC, in the assay with SK-MEL-2 melanoma, with HT29 colon, in the assay with U251 CNS and with HOP-92 NSCLC was greater than 100 µM in each case.

As to `N#CC(Cc1ccccc1Br)N(CCC1=CCCCC1)C(c1ccccc1)c1ccccc1` (stereo unspecified), the TGI in the assay on HCT-116 colon, in the assay with 786-0 renal, with MDA-MB-435, in the assay on UACC-62 melanoma, in the assay on MDA-N and with SK-OV-3 ovarian was greater than 100 µM throughout. Moreover, the TGI in the assay with EKVX NSCLC, in the assay on SNB-75 CNS, in the assay with OVCAR-8 ovarian, with UO-31 renal, with K-562 leukemia and with SW-620 colon was greater than 100 µM in each case. The TGI in the assay with HOP-62 NSCLC, with SK-MEL-2 melanoma, in the assay on HT29 colon, in the assay on U251 CNS and in the assay on HOP-92 NSCLC was greater than 100 µM each time.

On to `COc1cc2cc(C(=O)N3CC(CCl)c4ccccc43)[nH]c2c(OC)c1OC` (stereo unspecified), for which the TGI in the assay on HCT-116 colon, with 786-0 renal, with MDA-MB-435, in the assay on UACC-62 melanoma, in the assay with MDA-N and in the assay on SK-OV-3 ovarian was greater than 100 µM throughout. Further, the TGI with EKVX NSCLC was greater than 100 µM; in the assay with SNB-75 CNS, greater than 100 µM; with OVCAR-8 ovarian, greater than 100 µM; with UO-31 renal, greater than 100 µM; with K-562 leukemia it was greater than 41.3 µM; in the assay on SW-620 colon, greater than 100 µM. The TGI in the assay with HOP-62 NSCLC was greater than 92.1 µM; in the assay on SK-MEL-2 melanoma it was greater than 100 µM; in the assay on HT29 colon, greater than 57.9 µM; in the assay with U251 CNS it was greater than 100 µM; in the assay with HOP-92 NSCLC, greater than 100 µM.

As for `COC(=O)[C@@H]1C[C@@H]2c3ccccc3N(S(=O)(=O)c3ccccc3)[C@@H]2N1C(=O)OC`, the TGI in the assay with HCT-116 colon, with 786-0 renal, in the assay with MDA-MB-435, in the assay on UACC-62 melanoma, in the assay on MDA-N and in the assay on SK-OV-3 ovarian was greater than 100 µM each time. Further, the TGI in the assay on EKVX NSCLC, in the assay on SNB-75 CNS, in the assay on OVCAR-8 ovarian, in the assay with UO-31 renal, in the assay on K-562 leukemia and in the assay with SW-620 colon was greater than 100 µM each time. In addition, the TGI in the assay with HOP-62 NSCLC, in the assay on SK-MEL-2 melanoma, in the assay on HT29 colon, in the assay on U251 CNS and with HOP-92 NSCLC was greater than 100 µM each time.

With `CN1CCC23c4c5ccc(O)c4OC2c2[nH]c4ccccc4c2CC3(O)C1C5` (stereo unspecified), the TGI with HCT-116 colon is greater than 100 µM; in the assay on 786-0 renal, 39.6 µM; in the assay with MDA-MB-435, 36.9 µM; in the assay on UACC-62 melanoma, 53.5 µM; in the assay on MDA-N, 44.9 µM; in the assay with SK-OV-3 ovarian, greater than 100 µM. Moreover, the TGI with EKVX NSCLC is greater than 100 µM; in the assay on SNB-75 CNS, greater than 100 µM; with OVCAR-8 ovarian it was greater than 100 µM; in the assay on UO-31 renal, 30.9 µM; in the assay with K-562 leukemia, 44.4 µM; in the assay on SW-620 colon, greater than 100 µM. Also, the TGI was greater than 100 µM with HOP-62 NSCLC; 39.9 µM in the assay on SK-MEL-2 melanoma; greater than 100 µM with HT29 colon; 52.9 µM with U251 CNS; 40.5 µM with HOP-92 NSCLC.

As to `O=[N+]([O-])/C(C(Cl)=C(Cl)Cl)=C(/Sc1ccccc1)N1CCCCC1`, the TGI in the assay on HCT-116 colon, in the assay on 786-0 renal, in the assay on MDA-MB-435, with UACC-62 melanoma, in the assay with MDA-N and in the assay with SK-OV-3 ovarian was greater than 100 µM in each case. Besides, the TGI in the assay with EKVX NSCLC, in the assay with SNB-75 CNS, in the assay on OVCAR-8 ovarian, with UO-31 renal, in the assay on K-562 leukemia and in the assay on SW-620 colon was greater than 100 µM in each case. Besides, the TGI with HOP-62 NSCLC, in the assay with SK-MEL-2 melanoma, with HT29 colon, in the assay on U251 CNS and in the assay with HOP-92 NSCLC was greater than 100 µM throughout.

Regarding `COc1cc2c(cc1OCc1ccccc1)NC(=S)[C@@H]1CCCN1C2=S`, the TGI with HCT-116 colon, in the assay with 786-0 renal, in the assay on MDA-MB-435, in the assay with UACC-62 melanoma, in the assay on MDA-N and with SK-OV-3 ovarian was greater than 100 µM throughout. Moreover, the TGI was greater than 100 µM in the assay with EKVX NSCLC; 90.3 µM in the assay with SNB-75 CNS; greater than 100 µM in the assay on OVCAR-8 ovarian; greater than 100 µM in the assay with UO-31 renal; greater than 100 µM in the assay with K-562 leukemia; greater than 100 µM in the assay on SW-620 colon. Also, the TGI in the assay on HOP-62 NSCLC was 66.2 µM; in the assay with SK-MEL-2 melanoma, greater than 100 µM; in the assay with HT29 colon, greater than 100 µM; in the assay on U251 CNS, greater than 100 µM; in the assay on HOP-92 NSCLC it was greater than 100 µM.
